According to patent publication US4734280A, “Treatment or prevention of PAF Acether-induced maladies” (priority 1984, dated 1988):
Values after ≈ are worked out from the molar mass of the structure shown. Where two headings read alike, the source gives them in different places.

Legend:
[1] = tested on: human PRP; assay: Inhibition of PAF Acether-induced PA, human PRP in vitro; type: cell-based; details: PAF Acether 100 nM, read-out: IC Doses (PAF Acether-induced PA, human PRP)
Method: (§1) The Inhibition of PAF Acether-induced PA has been studied on rabbit plasma-rich platelets (PRP). Two doses of PAF Acether were used (2.5 nM and 5 nM). The tested compound was added to the medium 3 minutes before PAF Acether and aggregation was followed by monitoring changes in electrical impedance (Whole-Blood aggregometer-chrono-Log); kadsurenone was simultaneously tested as reference compound and the IC50 molar doses of Ginkgolides A, B, C and M and of kadsurenone on PAF Acether-induced rabbit PA (PRP) have been calculated.
The inhibition of PAF Acether-induced PA has been studied on human PRP. The same protocol was used as for rabbit hereinabove.

[2] = tested on: guinea-pig mesenteric artery; assay: Opto-electronic follow-up of PAF Acether-induced thrombus, guinea-pig mesenteric artery; type: in vivo
Source text: In this experimental study, 20 guinea-pigs were used. […] Briefly summarized, this method consists in the dissection over a distance of 2 to 3 mm of a branch of the mesenteric artery following gently extraction of a loop of small intestine. By transillumination, the image of this arterial segment is projected onto a set of 30 light-depending resistances (LDR) arranged in two columns of 15 elements each. An LDR element has the property to change its internal resistance as a function of a variation of light intensity. Each LDR is connected into its own Wheatstone bridge, and the changes in light intensity due to thrombus formation will be recorded as variations in electrical potentials and registered as such via a multiplexing device.
In the present investigation, several discriminating parameters are recorded: (a) the t1 interval or the lag period (this is the time interval between the beginning of the PAF Acether superfusion and the first signs of thrombus formation; (b) the td interval is the duration of the thrombotic phenomenon; (c) the O(t) curve indicates the number of LDR elements covered by the thrombus image; (d) the D(t) curve represents during each 30×1/9×10^-2 sec interval the greatest potential deviation on one of the LDR elements covered by the thrombus image; (e) the T(t) curve represents the summation of the potentials registered on the LDR elements during a time interval of 30×1/9×10^-2 sec the TTV(t) curve results from the integration of the T(t) values in function of time; (f) mD, mT, and mO correspond to the maximal values registered on, respectively, the D(t), T(t), and O(t) curves; (g) TTV is the maximal value of the TTV(t) curve, whereas TVM is the value of this curve up to the point where mT is reached.
In a first series of experiments (10 animals) the effect of local superfusion with PAF Acether (10^-4 M) is investigated.
In a second series of experiments (10 animals) the effects of Ginkgolide B and of kadsurenone have been compared preventively and curatively.

[3] = tested on: rabbit plasma-rich platelets (PRP); assay: Inhibition of PAF Acether-induced PA, rabbit PRP in vitro; type: cell-based; details: Oryctolagus cuniculus, Platelet, average of 10 assays, read-out: IC50 doses on PAF Acether-induced rabbit PA (PRP)
Method: as §1
The results obtained are presented in the following table (average values for 10 assays for each dose) and FIG. 1: […]

[4] = tested on: guinea-pig isolated heart; assay: Isolated Langendorff heart, PAF Acether effect; details: PAF Acether 100 pM
Source text: The deletereous effect of PAF Acether on Isolated Langendorff heart has been previously described by J. BENVENISTE, C. BOULLET, C. BRINK and C. LABAT, Brit. J. Pharmacol, The action of PAF Acether on guinea-pig isolated heart preparation, 80: 81-3 (1983).
PAF Acether (100 pM) induced a decline in contractile strength (-30%) and a decrease of coronary flow (-50%).
This effect was dose-dependent (disappearance of protective activity when dose ≤10^-7 M).

[5] = tested on: New-Zealand rabbits; assay: PAF Acether-induced shock in the rabbit; type: in vivo; details: for Extravasation (O.D.): 2 mg/kg IV perfusion, 30 mn, optical density at 590 nm, average of 10 animals
Method: Treatment: Tested compounds (Gingkolides A, B and C) or vehicle were perfused in the ear vein in 45 ml NaCl 0.9% for 1 hour before PAF Acether injection. Vehicle consisted of 1.5 ml of propylene glycol completed to 45 ml by isotonic NaCl buffer; Ginkgolides were administered at the dose of 2 mg/kg IV; the figures reported in the following table are the average values of the 10 animals of each batch.

[6] = tested on: Sprague-Dowley rats; assay: Cutaneous vascular hyperpermeability induced by PAF Acether in the rat; type: in vivo; details: 1 mg/kg IV
Method: Method: Intradermal injection of 25 ng of PAF Acether in the dorsal region of the rat with simultaneous IV injection of Evans blue dye (60 mg/kg/5 ml) induces vascular hyperpermeability and wheals formation. (for details see Basran GS, Page CP, Paul W and Morley J-Cromoglycate inhibits responses to platelet-activating factor (PAF Acether) in man: an alternative mode of action for DSCG in asthma-Eur. J. Pharma. (1983) 86 143-144).
These wheals were measured (surface in mm^2) at the inner side of the skin 30 mn after the injections and were taken off, put in 4 ml of formamide, incubated at 65° C. during 24 h in order to extract the dye and measure their coloration (optical density at 620 nm).
Groups of 6 Sprague-Dowley rats weighing 200 g were used and each rat received intradermal injections in two sites of the back. The experiment was performed in comparison with a reference compound, D 600 (methoxy verapamil), a calcium-blocker agent.
Treatments: Tested compounds were administered by IV route injected once simultaneously with the dye.

[7] = tested on: rat portal vein; assay: Isolated rat portal vein, PAF Acether-induced increase of basal tonus
Method: In vitro experiments were performed on isolated longitudinal strips of rat portal vein maintained in Krebs-Henseleit medium at 37° C. under an oxygen-rich gaseous circulation (95% O2 -5% CO2).
The preparations were allowed to equilibrate for 1 hour under isotonic conditions with 500 mg tension and rinced every 15 minutes. When myogenic activity was established, PAF Acether (10^-7 M) is added. It induced an increase of the basal tonus and frequency of the myogenic activity.

[8] = tested on: human washed platelets; assay: Inhibition of PAF Acether-induced PA, human washed platelets; type: cell-based; details: Platelet, average values of 5 assays
Source text: The inhibition of PAF Acether-induced PA was also experimented using human washed platelets on Ginkgolides A, B, and C.
Best figure for IC50 was obtained with Ginkgolide B (GK B) (average values of 5 assays) with 2.5 10^-5 M.

[9] = 2 mg/kg IV, PAF Acether 2 and 4 nmol/kg, 10 animals per batch

CC1C(=O)OC2C(O)C34C5CC(C(C)(C)C)C36C(OC(=O)C6O)OC4(C(=O)O5)C12O (stereo not drawn) [Ginkgolide B]
IC50 [1]: 56 µM | thrombus formation when superfused with PAF Acether (preventive) ([2]; PAF Acether superfusion): no thrombus appeared | time for disappearance of pre-formed thrombus (curative) ([2]; PAF Acether-induced thrombus): 2.30 min | IC50 ([3]; PAF Acether 2.5 nM): 1.88 µM | IC50 ([3]; PAF Acether 5 nM): 3.2 µM | inhibition of PAF Acether-induced decline in contractile strength and decrease of coronary flow ([4]; 2.10^-4 M): totally inhibited | dose at which protective activity disappears [4]: ≤ 10^-7 M | Extravasation (O.D.) ([5]; PAF Acether 2 nmol/kg): 0.827 O.D. | Extravasation (O.D.) ([5]; PAF Acether 4 nmol/kg): 0.880 O.D. | Behaviour: behavioural modifications [5, 9]: No behavioural | Behaviour: deaths [5, 9]: No death | PAF Acether induced wheal, Surface ([6]; PAF Acether 25 ng intradermal, 30 mn, p < 0.001): 58.5 mm^2 | PAF Acether induced wheal, Coloration OD ([6]; optical density at 620 nm, p < 0.001): 0.628 OD | PAF Acether induced wheal, Coloration % decrease ([6]; vs control): -45% | PAF Acether induced wheal, Surface % decrease ([6]; vs control): -43% | IC50 ([7]; Rattus norvegicus, PAF Acether 10^-7 M, added 30 minutes before PAF Acether, read-out: IC50 (antagonism of PAF Acether-induced increase of the basal tonus)): 6.8 µg/mL (≈ 16 µM) | effect on the myogenic activity ([7]; isolated rat portal vein): without effect | IC50 [8]: 25 µM
